From paper PMC9995496, “A screen for MeCP2-TBL1 interaction inhibitors using a luminescence-based assay” (Scientific Reports, 2023)
Where a name gives a salt, the structure may show the parent alone.

system: PRKACA-PRKAR2A interaction (SmBiT-PRKACA / LgBiT-PRKAR2A), protein kinase A; set-up: NanoLuc complementation counter-screen in cell extract, PRKACA with PRKAR2A, loss of luminescence, detects NanoLuc interference; conditions: counter-screen for NanoLuc interference, 0.5 h, 20 µM, inhibitor, Inh (PKA)

Inh (PKA) [%] | Compound
-0.4434 | CCCC(CCC)C(=O)O [UM0128554:02, Valproic acid]
10.54 | C#Cc1cccc(Nc2ncnc3cc(OCCOC)c(OCCOC)cc23)c1 [UM0130975:02, Erlotinib Hydrochloride]
3.012 | CS(=O)(=O)N1CCN(Cc2cc3nc(-c4cccc5[nH]ncc45)nc(N4CCOCC4)c3s2)CC1 [UM0130976:02, GDC-0941]
10.22 | Cc1ccc(NC(=O)c2ccc(CN3CCN(C)CC3)cc2)cc1Nc1nccc(-c2cccnc2)n1 [UM0130978:02, Imatinib Mesylate (STI571)]
54.72 | CS(=O)(=O)CCNCc1ccc(-c2ccc3ncnc(Nc4ccc(OCc5cccc(F)c5)c(Cl)c4)c3c2)o1 [UM0130979:02, Lapatinib Ditosylate]

More lines, now with the values behind:

Compound | Inh (PKA) [%]
Oc1cccc(-c2nc(N3CCOCC3)c3oc4ncccc4c3n2)c1 [UM0127905:03, PI-103] | 4.016
C[S+]([O-])c1ccc(-c2nc(-c3ccc(F)cc3)c(-c3ccncc3)[nH]2)cc1 (stereo not shown) [UM0127917:04, SB 203580] | 16.51
C#Cc1cccc(Nc2ncnc3cc(OCCOC)c(OCCOC)cc23)c1 [UM0127944:02, Erlotinib] | 7.481
CNC(=O)c1cc(Oc2ccc(NC(=O)Nc3ccc(Cl)c(C(F)(F)F)c3)cc2)ccn1 [UM0127950:06, Sorafenib] | 5.105
Cc1ccc(NC(=O)c2ccc(CN3CCN(C)CC3)cc2)cc1Nc1nccc(-c2cccnc2)n1 [UM0127952:03, Imatinib (STI571)] | 7.189
CS(=O)(=O)CCNCc1ccc(-c2ccc3ncnc(Nc4ccc(OCc5cccc(F)c5)c(Cl)c4)c3c2)o1 [UM0127953:02, Lapatinib] | 55.05
Cc1ccc(Nc2nccc(N(C)c3ccc4c(C)n(C)nc4c3)n2)cc1S(N)(=O)=O [UM0127957:02, Pazopanib (GW-786034)] | 11.23
Clc1ccc(Nc2nnc(Cc3ccncc3)c3ccccc23)cc1 [UM0127963:02, Vatalanib (PTK787) 2HCl] | 26.41
Clc1ccc(Nc2nnc(Cc3ccncc3)c3ccccc23)cc1 [UM0127963:03, Vatalanib] | 29.07
Cc1cccc(-c2[nH]c(C(C)(C)C)nc2-c2ccc3c(c2)OCO3)n1 [UM0127976:02, SB-505124 hydrochloride] | 12.14
C[C@@H]1CCN(C(=O)CC#N)C[C@@H]1N(C)c1ncnc2[nH]ccc12 [UM0128176:02, Tofacitinib (CP-690550,Tasocitinib)] | -2.944

same assay, conditions: counter-screen for NanoLuc interference; 0.5 h, 20 µM; inhibitor

Inh (PKA) [%] | Compound
13.93 | O=C(c1ccc(Cl)cc1Cl)n1nnc2ccccc21 [UM0128552:02, ITSA-1 (ITSA1)]
3.362 | NC(=O)C1CCCc2c1[nH]c1ccc(Cl)cc21 (stereo not shown) [UM0128555:02, EX 527 (SEN0014196)]
25.41 | Oc1ccc(/C=C/c2cc(O)cc(O)c2)cc1 [UM0128556:03, Resveratrol]
17.81 | Oc1cc(O)cc(/C=C/c2ccc(O)c(O)c2)c1 [UM0128559:03, Piceatannol]
5.402 | CCCCCCCCCCCCCCCc1cccc(O)c1C(=O)O [UM0128565:02, Anacardic acid]
3.39 | CC(C)C(=O)SCCCCCCC(=O)Nc1nc(-c2ccccc2)cs1 [UM0128574:02, NCH 51]
-1.752 | CC(=O)Nc1ccc(C(=O)Nc2ccccc2N)cc1 [UM0128575:02, CI994 (Tacedinaline)]
10.59 | O=Nc1ccc(O)c2ncccc12 [UM0128576:03, NSC 3852]
0.9337 | COc1cc2c(NC3CCN(C(C)C)CC3)nc(C3CCCCC3)nc2cc1OCCCN1CCCC1 [UM0128581:02, UNC0638]
4.351 | CCN(c1cc(-c2ccc(CN3CCOCC3)cc2)cc(C(=O)NCc2c(C)cc(C)[nH]c2=O)c1C)C1CCOCC1 [UM0129937:03, EPZ-6438]
0.2399 | COc1cc2c(NC3CCN(C4CCCCC4)CC3)nc(N3CCCN(C(C)C)CC3)nc2cc1OCCCN1CCCCC1 [UM0129939:02, UNC 0646]
16.5 | Cn1cnc2c(F)c(Nc3ccc(Br)cc3Cl)c(C(=O)NOCCO)cc21 [UM0130968:04, AZD6244 (Selumetinib)]
70.13 | O=C(NOCC1CC1)c1ccc(F)c(F)c1Nc1ccc(I)cc1Cl [UM0130972:02, PD184352 (CI-1040)]
3.422 | COc1cc2nccc(Oc3ccc(NC(=O)NC4CC4)c(Cl)c3)c2cc1C(N)=O [UM0130973:02, Lenvatinib (E7080)]
49.88 | Cn1cc(C2=C(c3cn(C4CCN(Cc5ccccn5)CC4)c4ccccc34)C(=O)NC2=O)c2ccccc21 [UM0130974:02, Enzastaurin (LY317615)]
2.214 | CC(=O)Nc1cccc(-n2c(=O)n(C3CC3)c(=O)c3c(Nc4ccc(I)cc4F)n(C)c(=O)c(C)c32)c1 [UM0130977:03, Trametinib (GSK1120212)]
-1.488 | Nc1cccc2c1CN(C1CCC(=O)NC1=O)C2=O (stereo not shown) [UM0130980:03, Lenalidomide (CC-5013)]
6.14 | NC1(c2ccc(-c3nc4ccn5c(=O)[nH]nc5c4cc3-c3ccccc3)cc2)CCC1 [UM0130983:02, MK-2206 dihydrochloride]
37.9 | Cc1ccc(C(=O)Nc2cccc(C(F)(F)F)c2)cc1Nc1nc(-c2cccnc2)nc2c1cnn2C [UM0130987:02, NVP-BHG712]

The next lines start with the molecule.

Compound | Inh (PKA) [%]
NC(=O)Nc1sc(-c2ccc(F)cc2)cc1C(N)=O [UM0127870:03, TPCA-1] | 19.86
COc1ccc(Cl)cc1NC(=O)Nc1cc(C)nc2ccccc12 [UM0127873:03, PQ 401] | 19.94
O=C(Nc1nc2ccccc2n1CCN1CCOCC1)c1cccc([N+](=O)[O-])c1 [UM0127874:03, IRAK-1-4 Inhibitor I] | 12.44
CC(C)(C)c1nc2c3cc[nH]c(=O)c3c3cc(F)ccc3c2[nH]1 [UM0127875:02, Pyridone 6] | 10.77
COc1cc2ncnc(Nc3ccc(O)c(Br)c3)c2cc1OC [UM0127876:02, WHI-P154] | 9.14
O=c1cc(N2CCOCC2)oc2c(-c3ccccc3)cccc12 [UM0127884:02, LY 294002] | 0.5276
N#C/C(=C(/N)Sc1ccc(N)cc1)c1ccccc1C(F)(F)F [UM0127888:02, SL-327] | 49.94
Cc1[nH]c(/C=C2\C(=O)Nc3ccc(S(=O)(=O)N(C)c4cccc(Cl)c4)cc32)c(C)c1C(=O)N1CCN(C)CC1 [UM0127889:02, SU11274] | 71.51
Nc1ncnc2n[nH]c(Nc3ccc(F)cc3)c12 [UM0127890:04, CGP 57380] | 5.777
Nc1ccc2ncnc(NCCc3ccc(Oc4ccccc4)cc3)c2c1 [UM0127892:02, QNZ (EVP4593)] | 24.11
COc1cccc(-c2cc(=O)c3ccccc3o2)c1N [UM0127895:04, PD98059] | 12.91
c1ccc(-c2[nH]ncc2-c2ccnc3ccccc23)nc1 [UM0127931:02, LY364947] | 7.119
N#C/C(=C\c1ccc(O)c(O)c1)C(=O)NCc1ccccc1 [UM0127932:03, AG-490] | 36.26
COc1cc2ncc(-c3ccccc3)nc2cc1OC [UM0127935:03, Tyrphostin AG 1296] | 8.299
Cc1nc(Nc2ncc(C(=O)Nc3c(C)cccc3Cl)s2)cc(N2CCN(CCO)CC2)n1 [UM0127943:04, Dasatinib (BMS-354825)] | 9.592
Cc1cc(C(=O)NOCCO)c(Nc2ccc(I)cc2F)n(C)c1=O [UM0127946:02, AZD8330] | 1.892

Compound | Inh (PKA) [%]
Cc1ccc(-n2nc(C(C)(C)C)cc2NC(=O)Nc2ccc(OCCN3CCOCC3)c3ccccc23)cc1 [UM0127947:02, BIRB 796 (Doramapimod)] | 10.73
CCCS(=O)(=O)Nc1ccc(F)c(C(=O)c2c[nH]c3ncc(Cl)cc23)c1F [UM0127949:04, PLX-4720] | 29.68
Cc1ccc(NC(=O)c2ccc(CN3CCN(C)CC3)cc2)cc1Nc1nc(-c2cccnc2)cs1 [UM0127954:03, Masitinib (AB1010)] | 15.54
Cc1cn(-c2cc(NC(=O)c3ccc(C)c(Nc4nccc(-c5cccnc5)n4)c3)cc(C(F)(F)F)c2)cn1 [UM0127956:03, Nilotinib(AMN-107)] | 17.26
CC[C@H](CO)Nc1nc(NCc2ccccc2)c2ncn(C(C)C)c2n1 [UM0127958:02, Roscovitine (Seliciclib,CYC202)] | 10.31
Cc1cc(Nc2cc(N3CCN(C)CC3)nc(Sc3ccc(NC(=O)C4CC4)cc3)n2)n[nH]1 [UM0127961:02, VX-680 (MK-0457,Tozasertib)] | 9.039
COc1cc2/c(=N/c3ccc(Br)cc3F)nc[nH]c2cc1OCC1CCN(C)CC1 [UM0127962:02, Vandetanib (ZD6474)] | 5.275
NC(=O)c1ccc(N(C(N)=O)c2c(F)cccc2F)nc1-c1ccc(F)cc1F [UM0127964:03, VX-702] | 6.199
Cc1ccc(NC(=O)c2cccc(C(C)(C)C#N)c2)cc1Nc1ccc2ncn(C)c(=O)c2c1 [UM0127965:02, AZ 628] | 24.58
O=C(O)c1ccnc(C(=O)O)c1 [UM0128207:03, 2,4-Pyridinedicarboxylic Acid] | 1.396
CCCS(=O)(=O)Nc1ccc(F)c(C(=O)c2c[nH]c3ncc(-c4ccc(Cl)cc4)cc23)c1F [UM0128310:03, Vemurafenib (PLX4032, RG7204)] | 34.51
CC(/C=C/C(=O)NO)=C\[C@@H](C)C(=O)c1ccc(N(C)C)cc1 [UM0128540:02, Trichostatin A (TSA)] | 3.519
O=C1CCc2c(ccc3ccccc23)O1 [UM0128542:02, Splitomicin] | 1.175
O=C(CCCCCN1C(=O)c2cccc3cccc(c23)C1=O)NO [UM0128546:02, Scriptaid] | 3.14
Nc1ncn([C@H]2C[C@H](O)[C@@H](CO)O2)c(=O)n1 [UM0128548:04, Decitabine (NSC127716, 5AZA-CdR)] | 0.991
O=c1ncccn1[C@@H]1O[C@H](CO)[C@@H](O)[C@H]1O [UM0128549:02, Zebularine] | -0.4631
